Experimental data: ChEMBL document CHEMBL4627395, “Cytotoxic Heptaketides from the Endolichenic Fungus Ulospora bilgramii” (J Nat Prod, 2020)
Structures can show the parent of a compound that is named as a salt. Calls of active or inactive are those of the source. The calls are words filed in the database; no cut-off is given here.

Key:
A549 [1] = test: Cytotoxicity against human A549 cells incubated for 48 hrs by MTT assay; type: functional, cell-based; conditions: A549, 48 h
MCF7 = test: Cytotoxicity against human MCF7 cells incubated for 48 hrs by MTT assay; type: functional, cell-based; conditions: MCF7, 48 h
KB = test: Cytotoxicity against human KB cells incubated for 48 hrs by MTT assay; type: functional, cell-based
A549 [2] = test: Induction of cell cycle arrest in human A549 cells assessed as accumulation at G0/G1 phase incubated for 24 hrs by flow cytometry; type: functional, cell-based
A549 [3] = test: Induction of cell cycle arrest in human A549 cells assessed as accumulation at G0/G1 phase at 13.6 uM incubated for 24 hrs by flow cytometry (reference value: 55.79%); type: functional
A549 [4] = test: Induction of cell cycle arrest in human A549 cells assessed as accumulation at S phase at 13.6 uM incubated for 24 hrs by flow cytometry (reference value: 33.65%); type: functional
A549 [5] = test: Induction of cell cycle arrest in human A549 cells assessed as accumulation at G2/M phase at 13.6 uM incubated for 24 hrs by flow cytometry (reference value: 10.38%); type: functional
A549 [6] = test: Induction of cell cycle arrest in human A549 cells assessed as accumulation at G0/G1 phase at 1.25 uM incubated for 24 hrs by flow cytometry (reference value: 55.79%); type: functional
A549 [7] = test: Induction of cell cycle arrest in human A549 cells assessed as accumulation at S phase at 1.25 uM incubated for 24 hrs by flow cytometry (reference value: 33.65%); type: functional
A549 [8] = test: Induction of cell cycle arrest in human A549 cells assessed as accumulation at G2/M phase at 1.25 uM incubated for 24 hrs by flow cytometry (reference value: 10.38%); type: functional
A549 [9] = test: Induction of cell cycle arrest in human A549 cells assessed as accumulation at G0/G1 phase at 2.5 uM incubated for 24 hrs by flow cytometry (reference value: 55.79%); type: functional
A549 [10] = test: Induction of cell cycle arrest in human A549 cells assessed as accumulation at S phase at 2.5 uM incubated for 24 hrs by flow cytometry (reference value: 33.65%); type: functional
A549 [11] = test: Induction of cell cycle arrest in human A549 cells assessed as accumulation at G2/M phase at 2.5 uM incubated for 24 hrs by flow cytometry (reference value: 10.38%); type: functional
A549 [12] = test: Induction of cell cycle arrest in human A549 cells assessed as accumulation at G0/G1 phase at 5 uM incubated for 24 hrs by flow cytometry (reference value: 55.79%); type: functional
A549 [13] = test: Induction of cell cycle arrest in human A549 cells assessed as accumulation at S phase at 5 uM incubated for 24 hrs by flow cytometry (reference value: 33.65%); type: functional
A549 [14] = test: Induction of cell cycle arrest in human A549 cells assessed as accumulation at G2/M phase at 5 uM incubated for 24 hrs by flow cytometry (reference value: 10.38%); type: functional
A549 [15] = test: induction of morphological changes in human A549 cells assessed as cell shrinkage at 1.25 to 5 uM incubated for 24 hrs by DAPI-staining based microscopic method; type: functional
A549 [16] = test: induction of morphological changes in human A549 cells assessed as appearance of apoptotic bodies at 1.25 to 5 uM incubated for 24 hrs by DAPI-staining based microscopic method; type: functional, cell-based
A549 [17] = test: Induction of apoptosis in human A549 cells after 24 hrs by Annexin-V-FITC/propidium iodide staining based flow cytometric method; type: functional, cell-based
A549 [18] = test: Induction of apoptosis in human A549 cells assessed as early apoptotic cells at 13.6 uM after 24 hrs by Annexin-V-FITC/propidium iodide staining based flow cytometric method (reference value: 0.56%); type: functional
A549 [19] = test: Induction of apoptosis in human A549 cells assessed as late apoptotic cells at 13.6 uM after 24 hrs by Annexin-V-FITC/propidium iodide staining based flow cytometric method (reference value: 1.40%); type: functional
A549 [20] = test: Induction of apoptosis in human A549 cells assessed as necrotic cells at 13.6 uM after 24 hrs by Annexin-V-FITC/propidium iodide staining based flow cytometric method (reference value: 1.12%); type: functional
A549 [21] = test: Induction of apoptosis in human A549 cells assessed as early apoptotic cells at 1.25 uM after 24 hrs by Annexin-V-FITC/propidium iodide staining based flow cytometric method (reference value: 0.56%); type: functional
A549 [22] = test: Induction of apoptosis in human A549 cells assessed as late apoptotic cells at 1.25 uM after 24 hrs by Annexin-V-FITC/propidium iodide staining based flow cytometric method (reference value: 1.40%); type: functional
A549 [23] = test: Induction of apoptosis in human A549 cells assessed as necrotic cells at 1.25 uM after 24 hrs by Annexin-V-FITC/propidium iodide staining based flow cytometric method (reference value: 1.12%); type: functional
A549 [24] = test: Induction of apoptosis in human A549 cells assessed as early apoptotic cells at 2.5 uM after 24 hrs by Annexin-V-FITC/propidium iodide staining based flow cytometric method (reference value: 0.56%); type: functional
A549 [25] = test: Induction of apoptosis in human A549 cells assessed as late apoptotic cells at 2.5 uM after 24 hrs by Annexin-V-FITC/propidium iodide staining based flow cytometric method (reference value: 1.40%); type: functional
A549 [26] = test: Induction of apoptosis in human A549 cells assessed as necrotic cells at 2.5 uM after 24 hrs by Annexin-V-FITC/propidium iodide staining based flow cytometric method (reference value: 1.12%); type: functional
A549 [27] = test: Induction of apoptosis in human A549 cells assessed as early apoptotic cells at 5 uM after 24 hrs by Annexin-V-FITC/propidium iodide staining based flow cytometric method (reference value: 0.56%); type: functional
A549 [28] = test: Induction of apoptosis in human A549 cells assessed as late apoptotic cells at 5 uM after 24 hrs by Annexin-V-FITC/propidium iodide staining based flow cytometric method (reference value: 1.40%); type: functional
A549 [29] = test: Induction of apoptosis in human A549 cells assessed as necrotic cells at 5 uM after 24 hrs by Annexin-V-FITC/propidium iodide staining based flow cytometric method (reference value: 1.12%); type: functional
A549 [30] = test: Induction of ROS generation in human A549 cells incubated for 24 hrs by DCFH-DA staining-based flow cytometric analysis relative to control; type: functional, cell-based
A549 [31] = test: Induction of ROS generation in human A549 cells assessed as increase in fluorescence intensity at 5 uM incubated for 24 hrs by DCFH-DA staining-based flow cytometric analysis relative to control; type: functional
[32] = target: DNA topoisomerase 2-alpha (Homo sapiens) (UniProt P11388); test: Inhibition of human topoisomerase-2alpha expressed in baculovirus infected insect cells assessed as reduction in pBR322 DNA relaxation measured after 30 mins by ethidium bromide staining based agarose gel electrophoresis method relative to control
A549 [33] = test: Induction of DNA damage in human A549 cells assessed as gammaH2AX accumulation incubated for 24 hrs by DAPI staining based Immunofluorescence method; type: functional, cell-based

Chain of DNA topoisomerase 2-alpha (Homo sapiens) (P11388 whole entry): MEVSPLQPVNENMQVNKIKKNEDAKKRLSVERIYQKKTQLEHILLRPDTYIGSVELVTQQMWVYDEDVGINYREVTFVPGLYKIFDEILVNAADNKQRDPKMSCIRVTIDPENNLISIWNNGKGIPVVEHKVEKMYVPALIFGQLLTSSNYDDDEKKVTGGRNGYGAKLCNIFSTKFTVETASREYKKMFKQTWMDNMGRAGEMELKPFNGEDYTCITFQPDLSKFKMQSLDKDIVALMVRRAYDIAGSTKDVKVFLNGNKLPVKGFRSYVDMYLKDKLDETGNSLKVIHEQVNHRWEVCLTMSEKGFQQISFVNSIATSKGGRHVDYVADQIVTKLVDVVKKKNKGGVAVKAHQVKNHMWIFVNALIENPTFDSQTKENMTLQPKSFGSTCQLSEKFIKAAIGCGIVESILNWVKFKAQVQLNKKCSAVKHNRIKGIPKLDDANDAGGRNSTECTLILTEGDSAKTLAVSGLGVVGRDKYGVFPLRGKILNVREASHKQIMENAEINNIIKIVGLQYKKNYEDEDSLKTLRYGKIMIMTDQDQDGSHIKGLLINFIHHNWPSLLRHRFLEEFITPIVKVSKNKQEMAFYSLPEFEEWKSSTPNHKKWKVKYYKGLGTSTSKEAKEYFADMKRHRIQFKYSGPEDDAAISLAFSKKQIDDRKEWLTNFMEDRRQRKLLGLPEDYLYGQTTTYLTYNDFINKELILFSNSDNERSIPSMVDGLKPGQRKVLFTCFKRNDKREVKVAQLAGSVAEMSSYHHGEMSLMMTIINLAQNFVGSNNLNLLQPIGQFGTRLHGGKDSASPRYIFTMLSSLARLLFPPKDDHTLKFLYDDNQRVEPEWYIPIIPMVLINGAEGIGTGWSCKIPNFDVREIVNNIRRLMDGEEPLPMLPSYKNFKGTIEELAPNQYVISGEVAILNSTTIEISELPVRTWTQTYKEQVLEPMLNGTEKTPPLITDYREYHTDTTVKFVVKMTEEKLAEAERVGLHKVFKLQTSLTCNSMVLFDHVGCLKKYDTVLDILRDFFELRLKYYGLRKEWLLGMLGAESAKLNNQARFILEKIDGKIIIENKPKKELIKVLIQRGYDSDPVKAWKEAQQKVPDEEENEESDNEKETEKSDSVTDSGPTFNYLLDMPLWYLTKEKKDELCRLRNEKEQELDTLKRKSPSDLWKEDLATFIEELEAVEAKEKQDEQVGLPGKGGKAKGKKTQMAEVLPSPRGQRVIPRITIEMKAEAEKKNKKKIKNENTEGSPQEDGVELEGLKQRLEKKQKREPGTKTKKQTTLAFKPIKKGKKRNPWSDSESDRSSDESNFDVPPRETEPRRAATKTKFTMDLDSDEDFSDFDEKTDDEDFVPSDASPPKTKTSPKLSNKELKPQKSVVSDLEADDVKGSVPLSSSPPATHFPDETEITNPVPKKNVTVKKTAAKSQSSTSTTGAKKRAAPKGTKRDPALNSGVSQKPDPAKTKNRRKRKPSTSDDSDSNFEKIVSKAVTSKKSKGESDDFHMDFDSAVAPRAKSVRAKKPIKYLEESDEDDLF

SMILES: COc1cc(O)c2c(c1)[C@H](O)[C@H](C)CC2=O
- IC50 (A549 [1]): > 40 µM
- IC50 (MCF7): > 40 µM
- IC50 (KB): > 40 µM

SMILES: COc1cc(O)c2c(c1)[C@@H](O)[C@@H]1C[C@@H](C)OC[C@H]1C2=O
- IC50 (A549 [1]): > 40 µM
- IC50 (MCF7): > 40 µM
- IC50 (KB): > 40 µM

SMILES: COc1cc(O)c2c(c1)C(=O)C1=C(COC(C)(O)C1)C2=O (configuration not stated)
- IC50 (A549 [1]): > 40 µM
- IC50 (MCF7): > 40 µM
- IC50 (KB): > 40 µM

SMILES: COC1=CC(=O)[C@H](O)[C@H](C)C12Oc1cccc3cccc(c13)O2
- IC50 (A549 [1]): > 40 µM
- IC50 (MCF7): > 40 µM
- IC50 (KB): > 40 µM

SMILES: COc1cc(O)c2c(c1)C(=O)C1=C(C2=O)[C@H](OC[C@@H]2C(=O)CC[C@@H]2C)OC(C)=C1
- IC50 (A549 [1]): 1.3 µM
- IC50 (MCF7): 1.3 µM
- IC50 (KB): 3 µM
- Activity (A549 [2]): Dose-dependent effect
- Activity (A549 [3]): 30.93%
- Activity (A549 [4]): 24.26%
- Activity (A549 [5]): 44.81%
- Activity (A549 [6]): 59.51%
- Activity (A549 [7]): 33.31%
- Activity (A549 [8]): 7.18%
- Activity (A549 [9]): 66.37%
- Activity (A549 [10]): 30.07%
- Activity (A549 [11]): 3.56%
- Activity (A549 [12]): 69.15%
- Activity (A549 [13]): 29.74%
- Activity (A549 [14]): 1.11%
- Activity (A549 [15]): Active
- Activity (A549 [16]): Active
- Activity (A549 [17]): Dose-dependent effect
- Activity (A549 [18]): 6.79%
- Activity (A549 [19]): 5.02%
- Activity (A549 [20]): 2.15%
- Activity (A549 [21]): 0.98%
- Activity (A549 [22]): 1.14%
- Activity (A549 [23]): 0.73%
- Activity (A549 [24]): 0.87%
- Activity (A549 [25]): 2.69%
- Activity (A549 [26]): 1.3%
- Activity (A549 [27]): 1.8%
- Activity (A549 [28]): 10.75%
- Activity (A549 [29]): 7.75%
- Activity (A549 [30]): Dose-dependent effect
- fold change (FC) (A549 [31]): 5
- inhibition [32]: Active
- Activity (A549 [33]): Dose-dependent effect

SMILES: COc1cc(O)c2c(c1)[C@H](O)[C@@H]1C[C@H](C)OC[C@H]1C2=O
- IC50 (A549 [1]): > 40 µM
- IC50 (MCF7): > 40 µM
- IC50 (KB): > 40 µM

SMILES: COc1cc(O)c2c(c1)C(=O)C1=C(C2=O)C(O)OC(C)=C1 (configuration not stated) [ASCOMYCONE B]
- IC50 (A549 [1]): > 40 µM
- IC50 (MCF7): > 40 µM
- IC50 (KB): > 40 µM

SMILES: COc1cc(O)c2c(c1)C(=O)c1cc(C)ncc1C2=O
- IC50 (A549 [1]): > 40 µM
- IC50 (MCF7): > 40 µM
- IC50 (KB): > 40 µM

SMILES: COc1cccc2c1C(=O)c1c(O)c3c(c(O)c1C2=O)C[C@@](O)(C(=O)CO)C[C@@H]3O[C@H]1C[C@H](N)[C@H](O)[C@H](C)O1 [DOXORUBICIN HYDROCHLORIDE]
- IC50 (A549 [1]): 5 µM
- IC50 (MCF7): 2.5 µM
- IC50 (KB): 2.2 µM

SMILES: COc1cc(C)cc(O)c1
- IC50 (A549 [1]): > 40 µM
- IC50 (MCF7): > 40 µM
- IC50 (KB): > 40 µM

SMILES: COc1cc(O)c2c(c1)C(=O)C1=C(C2=O)[C@](C)(OC)OCC1
- IC50 (A549 [1]): 28.2 µM
- IC50 (MCF7): 11.6 µM
- IC50 (KB): 16.6 µM

SMILES: COc1cc(O)c2c(c1)C(=O)c1c(coc1[C@H](C)O)C2=O
- IC50 (A549 [1]): > 40 µM
- IC50 (MCF7): > 40 µM
- IC50 (KB): > 40 µM

SMILES: COc1cc(O)c2c(c1)[C@@H](O)[C@@H]1C[C@H](C)OC[C@H]1C2=O
- IC50 (A549 [1]): > 40 µM
- IC50 (MCF7): > 40 µM
- IC50 (KB): > 40 µM

SMILES: COc1cc(C)c(Cc2c(C)cc(O)cc2OC)c(O)c1
- IC50 (A549 [1]): > 40 µM
- IC50 (MCF7): > 40 µM
- IC50 (KB): > 40 µM

SMILES: COc1cc(O)c2c(c1)C(=O)C(CC(C)=O)=C(C)C2=O
- IC50 (A549 [1]): > 40 µM
- IC50 (MCF7): > 40 µM
- IC50 (KB): > 40 µM

SMILES: COc1cc(O)c2c(c1)[C@@H](O)[C@H]1C[C@H](C)OC=C1C2=O
- IC50 (A549 [1]): > 40 µM
- IC50 (MCF7): > 40 µM
- IC50 (KB): > 40 µM

SMILES: COc1cc(O)c2c(c1)C(=O)C1=C(C2=O)[C@@](C)(OC)OCC1
- IC50 (A549 [1]): 28.2 µM
- IC50 (MCF7): 11.6 µM
- IC50 (KB): 16.6 µM

SMILES: COc1cc(O)c2c(c1)[C@@H]1O[C@]3(C)C[C@@H]1[C@@H](CO3)C2=O
- IC50 (A549 [1]): > 40 µM
- IC50 (MCF7): > 40 µM
- IC50 (KB): > 40 µM

SMILES: COc1cc(O)c2c(c1)C(=O)C1=C(COC(C)=C1)C2=O
- IC50 (A549 [1]): > 40 µM
- IC50 (MCF7): > 40 µM
- IC50 (KB): > 40 µM

SMILES: COc1cc(O)c2c(c1)C(=O)C1=C(C2=O)C(OC)OC(C)=C1 (configuration not stated) [ASCOMYCONE A]
- IC50 (A549 [1]): > 40 µM
- IC50 (MCF7): > 40 µM
- IC50 (KB): > 40 µM
